Measurements taken from EP2229935A1, “Peptide derivatives or pharmaceutically acceptable salts thereof, method for producing the same, use of said derivatives and pharmaceutical composition” (Nebolsin, Vladimir Evgenievich, priority 1997, dated 1999).
Read-outs that look alike come from different tables or passages of the source. Marks after values point to notes of the source that are not given here.

Columns and labels:
mongrel male mice = assay: Delayed hypersensitivity induced by picryl chloride (TCB), local ointment; type: in vivo
Protocol: Effect study of the compounds on the delayed type hypersensitivity reaction induced in mice by 2.4.6-trichlorobenzol (TCB) was carried out according to the method of Tarayre et al. [Tarayre J.P., Barbara M., Aliaga M., Tisne-Versilles. Comparative actions of immunosuppressants, glucocorticoids and non-steroidal antiinflammatory drugs on various models of delayed hypersensitivity and on a non-immune inflammation in mice. Arzneim.-Forsch. Drug Res. (1990), Vol. 40, pip.1125-1131].
Studies were conducted on mongrel male mice with initial body mass 30-35 g. Each group included 10 animals. Mice were sensitized with 0.1 ml 3% TCB solution in acetone application on a shaved abdominal area. In 7 days, the anaphylaxis-provoking TCB dose (0.025 ml of 3% solution) was applied on both surfaces of the right ear. In 30 minutes 0.05 ml of the test ointment were rubbed into the same surfaces. 24 hours after edema induction, mice were sacrified, ears were cut off and weighed. Allergic reaction intensity was assessed by change in weight in grams of the right ear (the test one) in relation to the left ear (the control ear).
Allergic reaction inhibition expressed in percent was calculated according to the formula: 100-[(R-L(exper.))/(L):(R-L(control))/(L)x100](%) [formula] where R - the right ear weight, L - the left ear weight.
The test compounds were applied on the ear in the form of 1% and 5% ointment the base of which were 10% methylcellulose solution and propylene glycol at 1:1 ratio.
Groups of animals: • Group 1 - control, ointment base without active substance was applied on the ear of animals. • Group 2 - ointment base comprising 1% compound III was applied on the ear of animals. • Group 3 - ointment base comprising 1% compound XVII was applied on the ear of animals. • Group 4 - ointment base comprising 5% compound XLVIII was applied on the ear of animals.

mongrel mice = assay: Acute hypobaric hypoxia model (AHBH); type: in vivo; settings: oral 4 days; for Effect in percent: lifetime relative to control; for Lifetime under hypoxic conditions (minutes): mice, 170-185 mm Hg
Protocol: The tests of determining average lifetime of animals in a closed volume and on the model of acute hypobaric hypoxia at the minimum atmospheric rarefaction (170-185 mm Hg) were used to study antihypoxic activity of the compunds of general formula (I).
Simulation of AHBH was done in a flow-through chamber at temperature 22°C. Experiments were carried out on mongrel mice with initial body mass 20 g at the minimum rarefaction 170-185 mm Hg, that corresponds to the altitude of 10500-11000 m. Lift rate was 35 m/second. Each group included 15 animals. Compounds were administered orally, lift on to altitude was performed 2 hours after the last administration.
Groups of animals: • Group 1 - intact control -administration of normal saline four times. • Groups 2 and 3 - administration of the compound III at doses 50 and 500 µg/kg for 4 days. • Group 4 - single administration of sodium oxybutyrate at a dose […].

[1] = system: Strain Aichi of type A human influenza virus; type: in vivo; settings: for Survival rate in percent: series with Control - 2 (34.5); for Protection degree in percent: series with Control - 2
[2] = system: Lewis pulmonary carcinoma (LLC); assay: LLC metastasizing with surgical resection of the primary tumor node, alone and with Cyclophosphane; type: in vivo, C57BL/6 female mice; settings: day 29
Protocol: An important property of the compounds is their ability to manifest pharmacological activity on the model with resection of the primary tumor node and not to lower therapeutic efficacy of respective antitumor drugs. […] Surgical resection of the primary tumor node was performed by day 13 following tumor transplantation. The test anitumor compounds were administered according to two dosage regimens:
Dosage regimen 1 - animals were administered compound III from day 1 till day 13 of experiment at a dose 500 µg/kg (group 1); Cyclophosphane was administered intraperitoneally two times before operation with 96 hour interval at a dose 100 µg/kg (group 2); combined administration of compound III and Cyclophosphane was similar to administration of substances in groups 1 and 2 (group 3). Number of metastases was calculated by day 29 of experiment;
Dosage regimen 2 - animals were administered compound III from day 14 of experiment (commencement of administration 24 hours post operation) till day 28 (group 4); Cyclophosphane was administered twice post operation with 96 hour interval at a dose 100 µg/kg (group 5); combined administration of compound III and Cyclophosphane similar to administration of substances in groups 4 and 5 (group 6). Antimetastatic efficacy of the drugs was considered by day 29 of experiment.

[3] = system: peripheral blood neutrophils; assay: Activity of peripheral blood neutrophils in mice with LLC; type: in vivo, C57BL/6 female mice; settings: compound III 500.0 µg/kg for 10 days
Protocol: Experiments were carried out on C57BL/6 female mice with intramuscularly transplanted LLC carcinoma. Activity of neutrophils was measured by days 11 and 14.
• control - animals with LLC tumor, 10 animals; • animals with LLC tumor + compound III at a dose 500.0 µg/kg for 10 days. 8 animals; • animals with LLC tumor + Cyclophosphane 5 times at a dose 20.0 mg/kg (in 48 hours) for 10 days, 8 animals; • compound III and Cyclophosphane according to the above dosage regimen, 8 animals.
Experiment duration was 14 days.

[4] = system: hepatic P-450 cytochrome system; assay: Hexenal sleep duration in guinea pigs; type: in vivo; settings: oral 3 days, 50 µg/kg, control 24.76 ± 3.23
Protocol: Change in Hexenal sleep (HS) duration is the in vivo measurable index of hepatic P-450 cytochrome system condition.
Studies were carried out on male mice of the lines BALB/c*h75, C57B1/6, CBA, DBA/2, first generation CBF1 and BDF1 hybrides, with initial mass 18-20 g, each group including 10 mice; and on mongrel male guinea pigs with initial mass 250-300 g, each group including 24 animals. All the test compounds (from II to LII) were administered orally in drinking water and for three days at doses 50 and 500 µg/kg. Hexenal hydrochloride at a dose […] of animal mass was administered 24 hours after the last drug administration, except for line BALB/c*h75 mice, which were administered Hexenal at a dose 60 µg/kg at the same terms, and guinea pigs for which Hexenal dose was 30 µg/kg. HS duration was determined in minutes.

[5] = regimen 1, prior to operation: day 1 till day 13, 500 µg/kg
[6] = regimen 2, post operation: day 14 till day 28

Compound: O=C(O)CCCC(=O)NCCc1c[nH]cn1 [compound III, N-GLUTARYLHISTAMINE]
- Weight of years (g) left (mongrel male mice): 15.4 ± 1.12 g
- Reaction inhibition (%) (mongrel male mice; mice, TCB, 1% ointment): 38%
- weight increment (mongrel male mice; mice, TCB, 1% ointment): 4.9 ± 0.5 g
- Effect in percent (mongrel mice; 50 µg/kg): 105 ± 3,5%
- Effect in percent (mongrel mice; 500 µg/kg): 113 ± 5,2%
- Lifetime under hypoxic conditions (minutes) (mongrel mice; 50 µg/kg): 322,0 ± 10,9 minutes
- Lifetime under hypoxic conditions (minutes) (mongrel mice; 500 µg/kg): 345,3 ± 15,9 minutes
- MLT ([1]; series with Control - 2 (9.1), 50 µg/kg orally, 3 days before and 10 days following infection): 10.1 days
- MLT, days ([1]; series with Control - 2 (9.1), 500 µg/kg orally, 3 days before and 10 days following infection): 11.5*^2 days
- Survival rate in percent ([1]; 50 µg/kg orally): 86.6*^2%
- Survival rate in percent ([1]; 500 µg/kg orally): 76.6*^2%
- Protection degree in percent ([1]; 50 µg/kg orally): 52.1%
- Protection degree in percent ([1]; 500 µg/kg orally): 42.2%
- Mean number of metastases [2, 5]: 32.0 ± 11.8
- Metastasizing inhibition percent [2, 5]: 8.0%
- Metastasizing rate (%) [2, 5]: 100%
- Mean number of metastases [2, 6]: 28.6 ± 8.5
- Metastasizing inhibition percent [2, 6]: 22.9%
- Metastasizing rate (%) [2, 6]: 100%
- Percent of active neutrophils ([3]; Background): 20.1 ± 2.7%
- Percent of active neutrophils ([3]; day 11): 9.3 ± 1.7%
- Percent of active neutrophils ([3]; day 14): 15.3 ± 4.3%

Compound: γ-L-glutamylhistamine [compound XLIV]
- Hexenal sleep duration (minutes) [4]: 13.48 ± 1.02* minutes
